Patent publication US4636492A, “Inhibition of viral protease activity by peptide halomethyl ketones” (priority 1984, dated 1987)
Numbered stars: 1 amine (or outer) side, 2 acyl side, 3 side chain; on linkers, the order of the positions; unused ones are H or OH. Square brackets hold non-standard residues; d marks the D form. Peptide text beside a SMILES is read from it. * marks the point of attachment. ξ: configuration not given here. Dansyl = CN(C)c1cccc2c(S(=O)(=O)*)cccc12; Suc = O=C(CCC(=O)[*:2])[*:1]; MeOSuc = COC(=O)CCC(=O)*; Cbz = O=C(OCc1ccccc1)*; Boc = CC(C)(C)OC(=O)*; ξL = CC(C)CC(N)C(=O)O; ξV = CC(C)C(N)C(=O)O; CH2Cl = ClC*

Molecular target: T1, subtilisin BPN' (Bacillus amyloliquefaciens, UniProt P00782)
T1 sequence (P00782 108-382): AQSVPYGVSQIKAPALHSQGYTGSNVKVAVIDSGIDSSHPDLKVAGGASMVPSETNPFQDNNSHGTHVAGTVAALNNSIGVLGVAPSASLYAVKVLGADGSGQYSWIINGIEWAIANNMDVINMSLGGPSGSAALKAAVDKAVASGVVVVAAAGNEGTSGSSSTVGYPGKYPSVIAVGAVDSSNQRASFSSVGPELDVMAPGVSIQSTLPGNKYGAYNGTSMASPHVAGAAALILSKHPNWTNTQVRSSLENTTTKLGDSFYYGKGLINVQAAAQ
Assay: not given
Conditions: among a series of peptide chloromethyl ketones; cited from earlier work

SMILES	Inhibition of subtilisin BPN' (relative rate)
CC(=O)N[C@@H](Cc1ccccc1)C(=O)NCC(=O)N[C@@H](C)C(=O)NC(CC(C)C)C(=O)CCl (stereo partly drawn) [Example 2, acetyl-L-phenylalanyl-L-glycyl-L-alanyl-L-leucyl chloromethyl ketone] (Ac-FGA[ξL]-CH2Cl)	fastest inhibitor

Molecular target: chymotrypsin (Bos taurus, UniProt P00766)
Assay: not given
Conditions: inhibitor concentration of 600 μg/mL; cited from earlier work

SMILES	Inhibition of chymotrypsin
CC(=O)N[C@@H](CC(C)C)C(=O)N[C@@H](CC(C)C)C(=O)N[C@@H](Cc1ccccc1)C(C)=O [Ac-Leu-Leu-PheCH3]	no inhibition was observed

System: Human rhinovirus type 1A
Assay: Plaque inhibition assay
Assay type: cell-based
Conditions: HeLa cells, concentration giving 90% plaque reduction

SMILES	Antiviral activity, as scored by 90% plaque reduction
CC(C)C[C@H](NC(=O)[C@H](CC(C)C)NC(=O)CNC(=O)[C@H](Cc1ccccc1)NC(=O)OCc1ccccc1)C(=O)CCl [Example 12, N-carbobenzoxy-L-phenylalanyl-L-glycyl-L-leucyl-L-leucine chloromethyl ketone] (Cbz-FGLL-CH2Cl)	1 µg/mL

System: human poliomyelitisvirus type 2
Assay: not given
Assay type: cell-based
Conditions: not given

SMILES	Activity (protease-inhibiting activity)
CC(C)C[C@H](NC(=O)[C@H](C)NC(=O)CNC(=O)[C@H](Cc1ccccc1)NC(=O)OCc1ccccc1)C(=O)CCl [Example 1, Z--Phe--Gly--Ala--LeuCH2 Cl] (Cbz-FGAL-CH2Cl)	+++ (key: -: no activity; +/-: low activity; +: active at 100 μg/mL; ++: active at 50 μg/mL; +++: active at 10 μg/mL; ++++: active at <5 μg/mL)
CC(=O)N[C@@H](Cc1ccccc1)C(=O)NCC(=O)N[C@@H](C)C(=O)NC(CC(C)C)C(=O)CCl (stereo partly drawn) [Example 2, acetyl-L-phenylalanyl-L-glycyl-L-alanyl-L-leucyl chloromethyl ketone] (Ac-FGA[ξL]-CH2Cl)	+++ (key: -: no activity; +/-: low activity; +: active at 100 μg/mL; ++: active at 50 μg/mL; +++: active at 10 μg/mL; ++++: active at <5 μg/mL)
CC(C)CC(NC(=O)[C@H](C)NC(=O)CNC(=O)[C@H](Cc1ccccc1)NC(=O)CCC(=O)O)C(=O)CCl (stereo partly drawn) [Example 3, Suc--Phe--Gly--Ala--LeuCH2 Cl] (Suc-FGA[ξL]-CH2Cl)	+++ (key: -: no activity; +/-: low activity; +: active at 100 μg/mL; ++: active at 50 μg/mL; +++: active at 10 μg/mL; ++++: active at <5 μg/mL)
COC(=O)CCC(=O)N[C@@H](Cc1ccccc1)C(=O)NCC(=O)N[C@@H](C)C(=O)N[C@@H](CC(C)C)C(=O)CCl [Example 4, methoxy-succinyl-L-phenylalanyl-L-glycyl-L-alanyl-L-leucyl chloromethyl ketone] (MeOSuc-FGAL-CH2Cl)	+++ (key: -: no activity; +/-: low activity; +: active at 100 μg/mL; ++: active at 50 μg/mL; +++: active at 10 μg/mL; ++++: active at <5 μg/mL)
CC(C)C[C@H](NC(=O)[C@H](C)NC(=O)CNC(=O)[C@H](Cc1ccccc1)NS(=O)(=O)c1cccc2c(N(C)C)cccc12)C(=O)CCl [Example 5, DNS--Phe--Gly--Ala--LeuCH2 Cl] (Dansyl-FGAL-CH2Cl)	+++ (key: -: no activity; +/-: low activity; +: active at 100 μg/mL; ++: active at 50 μg/mL; +++: active at 10 μg/mL; ++++: active at <5 μg/mL)
CC(C)C[C@H](NC(=O)[C@H](C)NC(=O)CNC(=O)[C@H](Cc1ccccc1)Nc1ccc([N+](=O)[O-])cc1[N+](=O)[O-])C(=O)CCl [Example 6, DNP--Phe--Gly--Ala--LeuCH2 Cl]	+++ (key: -: no activity; +/-: low activity; +: active at 100 μg/mL; ++: active at 50 μg/mL; +++: active at 10 μg/mL; ++++: active at <5 μg/mL)
CC(C)C[C@H](NC(=O)[C@H](C)NC(=O)CNC(=O)OC(C)(C)C)C(=O)CCl [Example 7, Boc--Gly--Ala--LeuCH2 Cl] (Boc-Gly-Ala-Leu-CH2Cl)	++ (key: -: no activity; +/-: low activity; +: active at 100 μg/mL; ++: active at 50 μg/mL; +++: active at 10 μg/mL; ++++: active at <5 μg/mL)
CC(C)C[C@H](NC(=O)[C@H](C)NC(=O)CNC(=O)[C@H](CC(C)C)NC(=O)OCc1ccccc1)C(=O)CCl [Example 8, Z--Leu--Gly--Ala--LeuCH2 Cl] (Cbz-LGAL-CH2Cl)	+++ (key: -: no activity; +/-: low activity; +: active at 100 μg/mL; ++: active at 50 μg/mL; +++: active at 10 μg/mL; ++++: active at <5 μg/mL)
CC(C)C[C@H](NC(=O)CNC(=O)CNC(=O)[C@H](Cc1ccccc1)NC(=O)OCc1ccccc1)C(=O)CCl [Example 9, Z--Phe--Gly--Gly--LeuCH2 Cl] (Cbz-FGGL-CH2Cl)	+++ (key: -: no activity; +/-: low activity; +: active at 100 μg/mL; ++: active at 50 μg/mL; +++: active at 10 μg/mL; ++++: active at <5 μg/mL)
CC(C)CC(NC(=O)C(C)NC(=O)CNC(=O)C(Cc1ccccc1)NC(=O)OCc1ccccc1)C(=O)CBr (stereo not drawn) [Example 10, Z--Phe--Gly--Ala--LeuCH2 Br]	+++ (key: -: no activity; +/-: low activity; +: active at 100 μg/mL; ++: active at 50 μg/mL; +++: active at 10 μg/mL; ++++: active at <5 μg/mL)
CC(C)C(NC(=O)[C@H](C)NC(=O)CNC(=O)[C@H](Cc1ccccc1)NC(=O)OCc1ccccc1)C(=O)CCl (stereo partly drawn) [Example 11, Z--Phe--Gly--Ala--ValCH2 Cl] (Cbz-FGA[ξV]-CH2Cl)	++ (key: -: no activity; +/-: low activity; +: active at 100 μg/mL; ++: active at 50 μg/mL; +++: active at 10 μg/mL; ++++: active at <5 μg/mL)
CC(C)C[C@H](NC(=O)[C@H](CC(C)C)NC(=O)CNC(=O)[C@H](Cc1ccccc1)NC(=O)OCc1ccccc1)C(=O)CCl [Example 12, N-carbobenzoxy-L-phenylalanyl-L-glycyl-L-leucyl-L-leucine chloromethyl ketone] (Cbz-FGLL-CH2Cl)	++++ (key: -: no activity; +/-: low activity; +: active at 100 μg/mL; ++: active at 50 μg/mL; +++: active at 10 μg/mL; ++++: active at <5 μg/mL)
CC(C)CC(NC(=O)[C@H](C)NC(=O)[C@H](CC(C)C)NC(=O)[C@H](Cc1ccccc1)NC(=O)OCc1ccccc1)C(=O)CCl (stereo partly drawn) [Example 13, Z--Phe--Leu--Ala--LeuCH2 Cl] (Cbz-FLA[ξL]-CH2Cl)	++ (key: -: no activity; +/-: low activity; +: active at 100 μg/mL; ++: active at 50 μg/mL; +++: active at 10 μg/mL; ++++: active at <5 μg/mL)
CC(C)C[C@H](NC(=O)[C@H](Cc1ccccc1)NC(=O)CNC(=O)[C@H](Cc1ccccc1)NC(=O)OCc1ccccc1)C(=O)CCl [Example 14, Z--Phe--Gly--Phe--LeuCH2 Cl] (Cbz-FGFL-CH2Cl)	++ (key: -: no activity; +/-: low activity; +: active at 100 μg/mL; ++: active at 50 μg/mL; +++: active at 10 μg/mL; ++++: active at <5 μg/mL)
CC(C)C[C@H](NC(=O)[C@H](CO)NC(=O)CNC(=O)[C@H](Cc1ccccc1)NC(=O)OCc1ccccc1)C(=O)CCl [Example 15, Z--Phe--Gly--Ser--LeuCH2 Cl] (Cbz-FGSL-CH2Cl)	++ (key: -: no activity; +/-: low activity; +: active at 100 μg/mL; ++: active at 50 μg/mL; +++: active at 10 μg/mL; ++++: active at <5 μg/mL)
CC(C)C[C@H](NC(=O)[C@@H]1CCCN1C(=O)CNC(=O)[C@H](Cc1ccccc1)NC(=O)OCc1ccccc1)C(=O)CCl [Example 16, Z--Phe--Gly--Pro--LeuCH2 Cl] (Cbz-FGPL-CH2Cl)	++ (key: -: no activity; +/-: low activity; +: active at 100 μg/mL; ++: active at 50 μg/mL; +++: active at 10 μg/mL; ++++: active at <5 μg/mL)
CC[C@H](C)[C@H](NC(=O)[C@H](C)NC(=O)CCC(=O)OC)C(=O)N[C@@H](Cc1ccccc1)C(=O)N[C@@H](CC(C)C)C(=O)CCl [Example 17, MeOSuc--Ala--Ile--Phe--LeuCH2 Cl] (MeOSuc-AIFL-CH2Cl)	+++ (key: -: no activity; +/-: low activity; +: active at 100 μg/mL; ++: active at 50 μg/mL; +++: active at 10 μg/mL; ++++: active at <5 μg/mL)
COC(=O)CCC(=O)N[C@@H](Cc1ccccc1)C(=O)NCC(=O)N[C@@H](CC(C)C)C(=O)N[C@@H](CCC(=O)OC)C(=O)CCl [Example 18, MeOSuc--Phe--Gly--Leu--Glu(OCH3)CH2 Cl] (MeOSuc-FGLE(OMe)-CH2Cl)	++++ (key: -: no activity; +/-: low activity; +: active at 100 μg/mL; ++: active at 50 μg/mL; +++: active at 10 μg/mL; ++++: active at <5 μg/mL)
CCC(C)C(NC(=O)C(C)NC(=O)CCC(=O)OC)C(=O)NC(Cc1ccccc1)C(=O)NC(CCC(=O)OC)C(=O)CCl (stereo not drawn) [Example 19, MeOSuc--Ala--Ile--Phe--Glu(OCH3)CH2 Cl] (MeOSuc-AIFE(OMe)-CH2Cl; configuration not given here)	+++ (key: -: no activity; +/-: low activity; +: active at 100 μg/mL; ++: active at 50 μg/mL; +++: active at 10 μg/mL; ++++: active at <5 μg/mL)
C[C@H](NC(=O)CNC(=O)[C@H](Cc1ccccc1)NC(=O)OCc1ccccc1)C(=O)N[C@@H](Cc1ccc(O)cc1)C(=O)CCl [Example 20, Z--Phe--Gly--Ala--TyrCH2 Cl] (Cbz-FGAY-CH2Cl)	++ (key: -: no activity; +/-: low activity; +: active at 100 μg/mL; ++: active at 50 μg/mL; +++: active at 10 μg/mL; ++++: active at <5 μg/mL)

System: human HeLa-O cells
Assay: not given
Conditions: not given

SMILES	Cytotoxicity first detected at a concentration
CC(C)C[C@H](NC(=O)[C@H](CC(C)C)NC(=O)CNC(=O)[C@H](Cc1ccccc1)NC(=O)OCc1ccccc1)C(=O)CCl [Example 12, N-carbobenzoxy-L-phenylalanyl-L-glycyl-L-leucyl-L-leucine chloromethyl ketone] (Cbz-FGLL-CH2Cl)	about 15 μg/mL
